From US7148194B2, “Method to increase fibronectin” (Kimberly-Clark Worldwide, Inc., priority 2002, dated 2006)

System: fibronectin in human skin fibroblast cell line
Assay: fibronectin in human skin fibroblasts, EIA
Type: cell-based
Conditions: for Mean (fibronectin EIA, absorbance at 450 nm) / Median (fibronectin EIA, absorbance at 450 nm): 48 hours, n=2
Protocol: The fibroblast cells were first grown in a 96-well assay system using DMEM with 10% fetal bovine serum (FBS), both purchased from Sigma Chemical Co, St. Louis, Mo. […] Serum-free DMEM was used as a control. Cells were seeded into a 96 well plate at a concentration of 9×10^3 cells in 100 μl of DMEM containing 10% fetal bovine serum (FBS, Sigma Chemical Co., St. Louis, Mo.). The plate was incubated for 48 hours at 37° C. in a humidified 5% CO2 atmosphere. After incubation, the medium was aspirated and the wells were rinsed twice with 100 μl of serum-free DMEM. […] In addition, 100 μl of vehicle (serum-free DMEM) was added to 2 wells as a control. The plate was incubated for 48 hours at 37° C. in a humidified, 5% CO2 atmosphere.
The assay was performed using the recommended 100 μl of supernatant from each well of the 96-well plate. Standard buffer and stop solutions were freshly prepared before running the assay. A pre-antibody coated 96 well plate (provided with the kit) was used to transfer the test samples and the control. The plate was mixed, sealed, and incubated for 1 hour at 37° C. All the wells were washed three times (300ul) with washing buffer after removing sample solutions. 100ul of antibody-peroxidase conjugate solution was added into the wells. The plate was mixed, sealed, and incubated for one hour at 37° C. Solutions were removed and the wells were washed 3 times with washing buffer. All the wells were completely emptied at the end of washing from any liquid. 100 μl of substrate solution (hydrogen peroxide and tetramethylbenzidine in a buffered solution) was added to each well, and the plate was incubated at room temperature for 15 minutes. 100 μl of stop solution (freshly prepared 1N H2SO4) was added to each well in the same order as substrate. The plate was gently mixed and absorbance was read at 450 nm. Statistical analyses of data were performed using a one-way ANOVA.

CC(C)[C@H](NC(=O)[C@H](CC(=O)O)NC(=O)[C@@H]1CCCN1C(=O)[C@H](CC(N)=O)NC(=O)CNC(=O)[C@H](CS)NC(=O)[C@H](CCCNC(=N)N)NC(=O)[C@@H]1CCCN1)C(=O)N[C@@H](C)C(=O)N[C@@H](CC(N)=O)C(=O)N[C@@H](Cc1ccc(O)cc1)C(=O)N[C@@H](CC(N)=O)C(=O)N[C@@H](Cc1ccccc1)C(=O)N[C@@H](Cc1ccccc1)C(=O)N1CCC[C@H]1C(=O)N[C@@H](CCCNC(=N)N)C(=O)N[C@@H](CCCCN)C(=O)N1CCC[C@H]1C(=O)N[C@@H](CCCCN)C(=O)O [Peptide 19-mer]
Mean (fibronectin EIA, absorbance at 450 nm) (1×10^−4 M): 0.4045 | Median (fibronectin EIA, absorbance at 450 nm) (1×10^−4 M): 0.4045 | Mean (fibronectin EIA, absorbance at 450 nm) (1×10^−5 M): 0.2400 | Median (fibronectin EIA, absorbance at 450 nm) (1×10^−5 M): 0.2400 | Mean (fibronectin EIA, absorbance at 450 nm) (1×10^−6 M): 0.1895 | Median (fibronectin EIA, absorbance at 450 nm) (1×10^−6 M): 0.1895 | effect on fibronectin stimulation compared with control and 10^−6 M (10^−4 M): more than doubled | amount of fibronectin versus control (all concentrations tested (1×10^−4, 1×10^−5, 1×10^−6 M)): increased the amount of fibronectin present
